pEC50: −log10 of the molar value. Read-outs that look alike come from different tables or passages of the source.
What was measured:
Type in all cases: cell-based
[1] = test system: Colo205; assay: Proliferation assay (CellTiter Glo), Colo205; conditions: Colo205 (WT K-ras)
Method: (§1) Briefly, cells at a density of 1,000-10,000 cells/well were seeded in 96-well plates and incubated at 37′C for 24 hours. A series of 9 different concentrations of compound stocks (500×) were created by 3-fold serial dilution in DMSO. These compounds were further diluted in culture media and then added to cells so that the final DMSO concentration was 0.2%. After 96 hours of incubation, 50 μL of CellTiter Glo reagent (Promega) was added to each well and luminescence was measured after 10 minutes using EnVision (PerkinElmer). […] The dose range for most compounds was 4.6 nM-30 μM. The dose ranges for some compounds were adjusted downward to 0.46 nM-3 μM or 0.08 nM-0.5 μM or 0.03 nM-0.2 μM. Luminescence from cells treated with […] alone was set as Max and % of inhibition was calculated as follows: Inhibition %=(Max-Sample value)/Max*100. Data was analyzed using XL-fit software (ID Business Solutions Ltd.) and EC50, relative EC50, and % of top inhibition were calculated.
(§2) Other cancer cell lines having wild-type K-ras status and K-ras mutation at G12 were also screened using the PKC activator compounds. […] K-104 was tested in a range of 0.03 nM-0.2 μM. […] The dose ranges were adjusted downward to 0.46 nM-3 μM for K-102 and 0.08 nM-0.5 μM for K-103 for some cell lines.

[2] = test system: KP-4; assay: Proliferation assay (CellTiter Glo), KP-4
Method: as §1, with “calculated. The results are shown in Tables 3-6 for pancreatic cancer, lung cancer, colon/gastric cancer, and leukemia cell lines.” for “calculated.”

[3] = test system: H838; assay: Proliferation assay (CellTiter Glo), H838; conditions: H838 (WT K-ras)
Method: as §1, §2

[4] = test system: Capan-1; assay: Proliferation assay (CellTiter Glo), Capan-1
Method: as §1, with “calculated. The results are shown in Tables 3-6 for pancreatic cancer, lung cancer, colon/gastric cancer, and leukemia cell lines.” for “calculated.”

[5] = test system: HT29; assay: Proliferation assay (CellTiter Glo), HT29; conditions: HT29 (WT K-ras)
Method: as §1, §2

[6] = test system: THP1; assay: Proliferation assay (CellTiter Glo), THP1
Method: as §1, with “calculated. The results are shown in Tables 3-6 for pancreatic cancer, lung cancer, colon/gastric cancer, and leukemia cell lines.” for “calculated.”

[7] = test system: AGS; assay: Proliferation assay (CellTiter Glo), AGS
Method: as §1, with “calculated. The results are shown in Tables 3-6 for pancreatic cancer, lung cancer, colon/gastric cancer, and leukemia cell lines.” for “calculated.”

[8] = test system: HL60; assay: Proliferation assay (CellTiter Glo), HL60
Method: as §1, with “calculated. The results are shown in Tables 3-6 for pancreatic cancer, lung cancer, colon/gastric cancer, and leukemia cell lines.” for “calculated.”

[9] = test system: MiaPaCa-2; assay: Proliferation assay (CellTiter Glo), MiaPaCa-2
Method: as §1

[10] = test system: LS180; assay: Proliferation assay (CellTiter Glo), LS180
Method: as §1, with “calculated. The results are shown in Tables 3-6 for pancreatic cancer, lung cancer, colon/gastric cancer, and leukemia cell lines.” for “calculated.”

[11] = test system: HCT116; assay: Proliferation assay (CellTiter Glo), HCT116
Method: as §1, with “calculated. The results are shown in Tables 3-6 for pancreatic cancer, lung cancer, colon/gastric cancer, and leukemia cell lines.” for “calculated.”

[12] = test system: SW900; assay: Proliferation assay (CellTiter Glo), SW900; conditions: SW900 (K-ras: G12V)
Method: as §1, §2

[13] = test system: H727; assay: Proliferation assay (CellTiter Glo), H727
Method: as §1, with “calculated. The results are shown in Tables 3-6 for pancreatic cancer, lung cancer, colon/gastric cancer, and leukemia cell lines.” for “calculated.”

[14] = test system: H1915; assay: Proliferation assay (CellTiter Glo), H1915; conditions: H1915 (WT K-ras)
Method: as §1, §2

[15] = test system: H441; assay: Proliferation assay (CellTiter Glo), H441
Method: as §1, with “calculated. The results are shown in Tables 3-6 for pancreatic cancer, lung cancer, colon/gastric cancer, and leukemia cell lines.” for “calculated.”

[16] = test system: BxPC-3; assay: Proliferation assay (CellTiter Glo), BxPC-3; conditions: BxPC-3 (WT K-ras)
Method: as §1, §2

[17] = test system: RPMI8226; assay: Proliferation assay (CellTiter Glo), RPMI8226; conditions: RPMI8226 (K-ras: G12A)
Method: as §1, §2

[18] = test system: A549; assay: Proliferation assay (CellTiter Glo), A549
Method: as §1, with “calculated. The results are shown in Tables 3-6 for pancreatic cancer, lung cancer, colon/gastric cancer, and leukemia cell lines.” for “calculated.”

[19] = test system: H358; assay: Proliferation assay (CellTiter Glo), H358
Method: as §1, with “calculated. The results are shown in Tables 3-6 for pancreatic cancer, lung cancer, colon/gastric cancer, and leukemia cell lines.” for “calculated.”

[20] = test system: SW620; assay: Proliferation assay (CellTiter Glo), SW620
Method: as §1, with “calculated. The results are shown in Tables 3-6 for pancreatic cancer, lung cancer, colon/gastric cancer, and leukemia cell lines.” for “calculated.”

[21] = test system: AsPC-1; assay: Proliferation assay (CellTiter Glo), AsPC-1
Method: as §1, with “calculated. The results are shown in Tables 3-6 for pancreatic cancer, lung cancer, colon/gastric cancer, and leukemia cell lines.” for “calculated.”

[22] = test system: Panc2.13; assay: Proliferation assay (CellTiter Glo), Panc2.13
Method: as §1, with “calculated. The results are shown in Tables 3-6 for pancreatic cancer, lung cancer, colon/gastric cancer, and leukemia cell lines.” for “calculated.”

[23] = test system: CCRF-CEM; assay: Proliferation assay (CellTiter Glo), CCRF-CEM
Method: as §1, with “calculated. The results are shown in Tables 3-6 for pancreatic cancer, lung cancer, colon/gastric cancer, and leukemia cell lines.” for “calculated.”

[24] = test system: Panc2.03; assay: Proliferation assay (CellTiter Glo), Panc2.03; conditions: for Top inhibition %: 96 hours
Method: as §1, with “calculated. The results are shown in Tables 3-6 for pancreatic cancer, lung cancer, colon/gastric cancer, and leukemia cell lines.” for “calculated.”

[25] = test system: K-Ras mutant pancreatic, lung, and colon cancer cell lines, leukemia cell lines; assay: Proliferation assays, panel of cancer cell lines (summary statements)
Method: as §1, with “calculated. The results are shown in Tables 3-6 for pancreatic cancer, lung cancer, colon/gastric cancer, and leukemia cell lines.” for “calculated.”

[26] = absolute EC50, 96 hours, read-out: Ab EC50
[27] = relative EC50, 96 hours, read-out: Re EC50

SMILES: CC(=O)O[C@@]12C[C@@H](C)[C@]3(O)C4C=C(C)C(O)[C@@]4(O)CC(CO)=C[C@H]3[C@@H]1C2(C)C (some centres unmarked) [Compound K-101C]
- Top inhibition % [1]: 73.2%
- Top inhibition % ([2]; 96 hours): 70.4%
- pEC50 [2, 26]: 4.96
- pEC50 [2, 27]: 5.17
- Top inhibition % [3]: 20.2%
- Top inhibition % ([4]; 96 hours): 35.7%
- pEC50 [4, 26]: < 4.52
- pEC50 [4, 27]: 5.27
- Top inhibition % [5]: 4.8%
- Top inhibition % ([6]; 96 hours): 51.4%
- pEC50 [6, 26]: 4.80
- pEC50 [6, 27]: 5.09
- Top inhibition % ([7]; 96 hours): 25.3%
- pEC50 [7, 26]: < 4.52
- pEC50 [7, 27]: 4.96
- Top inhibition % ([8]; 96 hours): 63.9%
- pEC50 [8, 26]: 4.77
- pEC50 [8, 27]: 4.89
- Top inhibition % ([9]; 96 hours): 40.1%
- pEC50 [9, 26]: < 4.52
- pEC50 [9, 27]: 5.36
- Top inhibition % ([10]; 96 hours): 6.8%
- pEC50 [10, 26]: < 4.52
- Top inhibition % ([11]; 96 hours): 12.2%
- pEC50 [11, 26]: < 4.52
- Top inhibition % [12]: 10.9%
- Top inhibition % ([13]; 96 hours): 42.8%
- pEC50 [13, 26]: < 4.52
- pEC50 [13, 27]: 5.44
- Top inhibition % [14]: 28.9%
- Top inhibition % ([15]; 96 hours): 37.0%
- pEC50 [15, 26]: < 4.52
- pEC50 [15, 27]: 5.13
- Top inhibition % [16]: 36.67%
- Top inhibition % [17]: 22.72%
- Top inhibition % ([18]; 96 hours): 70.3%
- pEC50 [18, 26]: 4.89
- pEC50 [18, 27]: 5.18
- Top inhibition % ([19]; 96 hours): 44.0%
- pEC50 [19, 26]: < 4.52
- pEC50 [19, 27]: 5.30
- Top inhibition % ([20]; 96 hours): 0.0%
- pEC50 [20, 26]: < 4.52

SMILES: CC(=O)O[C@@]12C[C@@H](C)[C@]3(O)C4C=C(C)C(=O)[C@@]4(O)CC(COC(=O)CC(N)C(=O)[O-])=C[C@H]3[C@@H]1C2(C)C.[Na+] (some centres unmarked) [Compound K-101I]
- Top inhibition % [1]: 82.2%
- Top inhibition % ([21]; 96 hours): 25.0%
- pEC50 [21, 26]: < 4.52
- pEC50 [21, 27]: 5.18
- Top inhibition % [3]: 29.3%
- Top inhibition % [5]: 11.8%
- Top inhibition % ([22]; 96 hours): 48.3%
- pEC50 [22, 26]: < 4.52
- pEC50 [22, 27]: 6.80
- Top inhibition % [12]: 10.8%
- Top inhibition % [14]: 16.4%
- Top inhibition % ([23]; 96 hours): 37.4%
- pEC50 [23, 26]: < 4.52
- pEC50 [23, 27]: 5.82
- Top inhibition % [16]: 38.12%
- Top inhibition % [17]: 17.60%
- Top inhibition % [24]: 26.3%
- pEC50 [24, 26]: < 4.52
- pEC50 [24, 27]: 5.22

SMILES: CC(=O)O[C@H]1C(=O)[C@@]2(C)[C@H]([C@H](OC(=O)c3ccccc3)[C@]3(O)C[C@H](OC(=O)[C@H](O)[C@@H](NC(=O)c4ccccc4)c4ccccc4)C(C)=C1C3(C)C)[C@]1(OC(C)=O)CO[C@@H]1C[C@@H]2O [Paclitaxel, reference compound]
- Top inhibition % [24]: 64.6%

SMILES: CCC/C=C/C=C/C(=O)O[C@H]1/C(=C/C(=O)OC)C[C@H]2C[C@H]([C@@H](C)O)OC(=O)C[C@H](O)C[C@@H]3C[C@H](OC(C)=O)C(C)(C)[C@](O)(C[C@@H]4C/C(=C/C(=O)OC)C[C@H](/C=C/C(C)(C)[C@]1(O)O2)O4)O3 [Compound K-104, Bryostatin 1]
- potency in proliferation inhibition relative to prostratin [25]: less potent in proliferation inhibition
- activity in cancer cell lines ([25]; cell lines with wild-type K-ras and K-ras G12 mutations (Table 7)): much lower activity
